Test results from patent US20110287080A1, “COATING II” (SMITH & NEPHEW PLC, priority 2008, published 2011).

Test: Elution of rapamycin from polymer-coated stents into PBS at 37° C., monitored by UV/vis
Assay type: physicochemical
Conditions: stent coating with 25% rapamycin, cumulative absorbance at 279 nm
Procedure: Solutions were prepared by dissolving the polymers listed in Table 1 in CHCl3 with 25% (by weight of the solid polymer) rapamycin. After cooling for 5 minutes, the stents were attached to a mandrel and coated on the Sonotek MediCoat Benchtop Coater with a 0.5% w/w solution in CHCl3 of polymer/drug (75/25). The parameters used were: 0.09 ml/min flow rate, 1.0 W ultrasonic power, 16 passes, 40 rpm rotation, 0.13 cm/s horizontal travel and 25 mm from stent to spray head. After coating, the stents were dried under vacuum for 16 hours at 40° C. The stents were released into phosphate buffered saline solution (PBS) at 37° C. and the elution monitored by UV/vis spectroscopy. Fresh buffer solution was added after each reading and the cumulative absorbance at 279 nm was recorded.

CCCCCCCCCCCC(=O)O [lauric acid]
rate of release (elution) of rapamycin: minimal affect on the rate of release of rapamycin
